Results published in PMC5218480 (PLoS ONE, 2017).

Test system: MV-4-11 cells
Assay: Gene expression microarray analysis (Affymetrix PrimeView) and GSEA
Format: cell-based, human
Parameters: RFU PODN (11730768_x_at) / Fold change /veh PODN (11730768_x_at) / RFU LINC00158 (11744669_a_at) / Fold change /veh LINC00158 (11744669_a_at) / RFU DUSP10 (11751237_a_at) / Fold change /veh DUSP10 (11751237_a_at) / RFU ID3 (11757404_x_at) / Fold change /veh ID3 (11757404_x_at) / RFU PLEKHG5 (11737974_s_at) / Fold change /veh PLEKHG5 (11737974_s_at) / RFU LRRC4B (11730491_at) / Fold change /veh LRRC4B (11730491_at) / RFU GIMAP4 (11747438_a_at) / Fold change /veh GIMAP4 (11747438_a_at) / RFU KRT8 (11758183_x_at) / Fold change /veh KRT8 (11758183_x_at) / RFU CNN1 (11734310_a_at) / Fold change /veh CNN1 (11734310_a_at) / RFU VPS37D (11726825_at) / Fold change /veh VPS37D (11726825_at) / RFU C10orf10 (11716522_x_at) / Fold change /veh C10orf10 (11716522_x_at) / RFU KIR2DL2 /// KIR2DL4 /// KIR2DL5A /// KIR2DL5B /// KIR2DS1 /// KIR2DS2 /// KIR2DS3 /// KIR2DS4 /// KIR3DL3 /// KIR3DL3 /// KIR3DS1 (11738374_at) / Fold change /veh KIR2DL2 /// KIR2DL4 /// KIR2DL5A /// KIR2DL5B /// KIR2DS1 /// KIR2DS2 /// KIR2DS3 /// KIR2DS4 /// KIR3DL3 /// KIR3DL3 /// KIR3DS1 (11738374_at) / RFU C1QL1 (11718748_at) / Fold change /veh C1QL1 (11718748_at) / RFU TMPRSS4 (11747572_a_at) / Fold change /veh TMPRSS4 (11747572_a_at) / RFU HAMP (11756126_x_at) / Fold change /veh HAMP (11756126_x_at) / RFU RNFT2 (11725882_a_at) / Fold change /veh RNFT2 (11725882_a_at) / RFU NR4A2 (11747474_a_at) / Fold change /veh NR4A2 (11747474_a_at) / RFU ABCC12 (11746883_a_at) / Fold change /veh ABCC12 (11746883_a_at) / RFU TMEM136 (11760407_x_at) / Fold change /veh TMEM136 (11760407_x_at) / RFU CLDN22 /// WWC2 (11732394_at) / Fold change /veh CLDN22 /// WWC2 (11732394_at) / RFU HLA-DPB1 (11760878_x_at) / Fold change /veh HLA-DPB1 (11760878_x_at) / RFU SPINT1 (11716480_a_at) / Fold change /veh SPINT1 (11716480_a_at) / RFU GAP43 (11754022_s_at) / Fold change /veh GAP43 (11754022_s_at) / RFU A4GNT (11735810_at) / Fold change /veh A4GNT (11735810_at) / RFU PRB3 (11715151_x_at) / Fold change /veh PRB3 (11715151_x_at) / RFU TUBB4B (11761932_at) / Fold change /veh TUBB4B (11761932_at) / RFU CAPN14 (11732068_a_at) / Fold change /veh CAPN14 (11732068_a_at) / RFU TMCC2 (11721928_a_at) / Fold change /veh TMCC2 (11721928_a_at) / RFU IRGQ (11745062_a_at) / Fold change /veh IRGQ (11745062_a_at) / RFU FAM174B (11720279_a_at) / Fold change /veh FAM174B (11720279_a_at) / RFU TMPRSS4 (11748680_a_at) / Fold change /veh TMPRSS4 (11748680_a_at) / RFU FAM212B (11763350_a_at) / Fold change /veh FAM212B (11763350_a_at) / RFU PLEKHG5 (11743358_a_at) / Fold change /veh PLEKHG5 (11743358_a_at) / RFU ZSCAN30 (11745921_a_at) / Fold change /veh ZSCAN30 (11745921_a_at) / RFU CMKLR1 (11741424_a_at) / Fold change /veh CMKLR1 (11741424_a_at) / RFU LOC101060620 /// MAPK8IP1 (11723275_at) / Fold change /veh LOC101060620 /// MAPK8IP1 (11723275_at) / RFU SPTSSB (11747773_x_at) / Fold change /veh SPTSSB (11747773_x_at) / RFU PRSS12 (11739890_at) / Fold change /veh PRSS12 (11739890_at) / RFU BIN1 (11741810_x_at) / Fold change /veh BIN1 (11741810_x_at) / RFU WNT11 (11732464_a_at) / Fold change /veh WNT11 (11732464_a_at) / RFU C10orf10 (11716521_a_at) / Fold change /veh C10orf10 (11716521_a_at) / RFU C5orf56 (11738089_at) / Fold change /veh C5orf56 (11738089_at) / RFU CYB561 (11721691_x_at) / Fold change /veh CYB561 (11721691_x_at) / RFU ANKRD19P (11752326_a_at) / Fold change /veh ANKRD19P (11752326_a_at) / RFU OR2T12 /// OR2T33 /// OR2T8 (11738714_s_at) / Fold change /veh OR2T12 /// OR2T33 /// OR2T8 (11738714_s_at) / RFU VCAN (11748164_a_at) / Fold change /veh VCAN (11748164_a_at) / RFU JSRP1 (11732532_at) / Fold change /veh JSRP1 (11732532_at) / RFU KRTAP10-11 (11738290_x_at) / Fold change /veh KRTAP10-11 (11738290_x_at) / RFU MYO3A (11730013_a_at) / Fold change /veh MYO3A (11730013_a_at) / RFU EBF3 (11725865_a_at) / Fold change /veh EBF3 (11725865_a_at) / RFU CAMK2N1 (11719241_x_at) / Fold change /veh CAMK2N1 (11719241_x_at) / RFU C5orf56 (11738088_a_at) / Fold change /veh C5orf56 (11738088_a_at) / RFU OLFML3 (11715873_a_at) / Fold change /veh OLFML3 (11715873_a_at) / RFU LOC100653217 /// NTM (11731650_a_at) / Fold change /veh LOC100653217 /// NTM (11731650_a_at) / RFU MAPK11 (11762145_a_at) / Fold change /veh MAPK11 (11762145_a_at) / RFU FIZ1 (11724087_x_at) / Fold change /veh FIZ1 (11724087_x_at) / RFU OASL (11726364_x_at) / Fold change /veh OASL (11726364_x_at) / RFU SOX15 (11748057_x_at) / Fold change /veh SOX15 (11748057_x_at) / RFU CD79A (11719716_a_at) / Fold change /veh CD79A (11719716_a_at) / RFU HIST1H1D (11736915_at) / Fold change /veh HIST1H1D (11736915_at) / RFU CASKIN2 (11723855_a_at) / Fold change /veh CASKIN2 (11723855_a_at) / RFU LOC730098 (11760151_x_at) / Fold change /veh LOC730098 (11760151_x_at) / RFU OR4N2 (11742367_at) / Fold change /veh OR4N2 (11742367_at) / RFU PRRT2 (11749266_a_at) / Fold change /veh PRRT2 (11749266_a_at) / RFU SNX32 (11753110_a_at) / Fold change /veh SNX32 (11753110_a_at) / RFU CDHR5 (11726645_a_at) / Fold change /veh CDHR5 (11726645_a_at) / RFU RCAN1 (11760418_a_at) / Fold change /veh RCAN1 (11760418_a_at) / RFU FAM167A (11723789_a_at) / Fold change /veh FAM167A (11723789_a_at) / RFU FAM26E (11764081_at) / Fold change /veh FAM26E (11764081_at) / RFU ISYNA1 (11749810_s_at) / Fold change /veh ISYNA1 (11749810_s_at) / RFU ACY1 (11761880_at) / Fold change /veh ACY1 (11761880_at) / RFU 11764098_at / Fold change /veh 11764098_at / RFU SAMD14 (11745864_x_at) / Fold change /veh SAMD14 (11745864_x_at) / RFU NPB (11741838_a_at) / Fold change /veh NPB (11741838_a_at) / RFU TMPRSS6 (11731388_a_at) / Fold change /veh TMPRSS6 (11731388_a_at) / RFU KRTAP10-2 (11738614_at) / Fold change /veh KRTAP10-2 (11738614_at) / RFU ARHGAP8 /// PRR5-ARHGAP8 (11727945_x_at) / Fold change /veh ARHGAP8 /// PRR5-ARHGAP8 (11727945_x_at) / RFU KRTAP5-7 /// NADSYN1 (11734609_at) / Fold change /veh KRTAP5-7 /// NADSYN1 (11734609_at) / RFU RASL12 (11751679_a_at) / Fold change /veh RASL12 (11751679_a_at) / RFU CDKN2B (11736163_a_at) / Fold change /veh CDKN2B (11736163_a_at) / RFU PRF1 (11729649_at) / Fold change /veh PRF1 (11729649_at) / RFU, ZNF638 /// ZNF638-IT1 / Fold change vs veh, ZNF638 /// ZNF638-IT1 / RFU, PANK3 / Fold change vs veh, PANK3 / RFU, SH3YL1 / Fold change vs veh, SH3YL1 / RFU, ZEB2 / Fold change vs veh, ZEB2 / RFU, NRIP1 / Fold change vs veh, NRIP1 / RFU, PTTG1IP / Fold change vs veh, PTTG1IP / RFU, CAPN2 / Fold change vs veh, CAPN2 / RFU, MED14 / Fold change vs veh, MED14 / RFU, SNORA58 / Fold change vs veh, SNORA58 / RFU, C1orf63 / Fold change vs veh, C1orf63 / RFU, LRRFIP1 / Fold change vs veh, LRRFIP1 / RFU, NDUFAF7 / Fold change vs veh, NDUFAF7 / RFU, SLC12A2 / Fold change vs veh, SLC12A2 / RFU, IBTK / Fold change vs veh, IBTK / RFU, ESF1 / Fold change vs veh, ESF1 / Fold change vs veh, TMEM50B / RFU, TAOK1 / Fold change vs veh, TAOK1 / RFU, ACBD3 / Fold change vs veh, ACBD3 / RFU, TMA16 / Fold change vs veh, TMA16 / RFU, RWDD3 / Fold change vs veh, RWDD3 / RFU, BCAT1 / Fold change vs veh, BCAT1 / RFU, EDEM3 / Fold change vs veh, EDEM3 / RFU, TMEM33 / Fold change vs veh, TMEM33 / RFU, WDR75 / Fold change vs veh, WDR75 / RFU, AHCTF1 / Fold change vs veh, AHCTF1 / RFU, TFRC / Fold change vs veh, TFRC / RFU, ZDHHC17 / Fold change vs veh, ZDHHC17 / RFU, NOM1 / Fold change vs veh, NOM1 / RFU, ARL8B / Fold change vs veh, ARL8B / RFU, ZBTB11 / Fold change vs veh, ZBTB11 / RFU, TAMM41 / Fold change vs veh, TAMM41 / RFU, KIAA1704 /// LOC100996395 / Fold change vs veh, KIAA1704 /// LOC100996395 / RFU, ING1 / Fold change vs veh, ING1 / RFU, TRMT61B / Fold change vs veh, TRMT61B / RFU, FUBP3 / Fold change vs veh, FUBP3 / RFU, TP53 / Fold change vs veh, TP53 / RFU, TNKS2 / Fold change vs veh, TNKS2 / RFU, ZFP14 / Fold change vs veh, ZFP14 / RFU, ACTR2 / Fold change vs veh, ACTR2 / RFU, PPP3R1 / Fold change vs veh, PPP3R1 / RFU, PIK3R1 / Fold change vs veh, PIK3R1 / RFU, HNRNPA1 / Fold change vs veh, HNRNPA1 / RFU, RNF170 / Fold change vs veh, RNF170 / RFU, ZNF28 / Fold change vs veh, ZNF28 / RFU, RNGTT / Fold change vs veh, RNGTT / RFU, OGT / Fold change vs veh, OGT / RFU, BRD1 / Fold change vs veh, BRD1 / RFU, MARS / Fold change vs veh, MARS / RFU, ZNF655 / Fold change vs veh, ZNF655 / RFU, FAHD1 / Fold change vs veh, FAHD1 / RFU, BDP1 / Fold change vs veh, BDP1 / RFU, LRRCC1 / Fold change vs veh, LRRCC1 / RFU, ARID1A / Fold change vs veh, ARID1A / RFU, ZNF146 / Fold change vs veh, ZNF146 / RFU, ZNF330 / Fold change vs veh, ZNF330 / RFU, GPN3 / Fold change vs veh, GPN3 / RFU, C9orf123 / Fold change vs veh, C9orf123 / RFU, N4BP2L2 / Fold change vs veh, N4BP2L2 / RFU, ARFIP1 / Fold change vs veh, ARFIP1 / RFU, FAM179B / Fold change vs veh, FAM179B / RFU, BCL10 / Fold change vs veh, BCL10 / RFU, UHRF1BP1L / Fold change vs veh, UHRF1BP1L / RFU, BET1 / Fold change vs veh, BET1 / RFU, CNOT2 / Fold change vs veh, CNOT2 / RFU, ZNF268 / Fold change vs veh, ZNF268 / Fold change vs veh, ZNF507 / RFU, DGCR2 / Fold change vs veh, DGCR2 / RFU, WDSUB1 / Fold change vs veh, WDSUB1 / Fold change vs veh, HSP90B1 /// MIR3652 / RFU, ADSS / Fold change vs veh, ADSS / RFU, GK / Fold change vs veh, GK / RFU, ZNF148 / Fold change vs veh, ZNF148 / RFU, TAF9 / Fold change vs veh, TAF9 / RFU, SLC1A5 / Fold change vs veh, SLC1A5 / RFU, SLMO2 / Fold change vs veh, SLMO2 / RFU, ABCC4 / Fold change vs veh, ABCC4 / RFU, LOC101060439 /// RAP1B / Fold change vs veh, LOC101060439 /// RAP1B / RFU, RFX7 / Fold change vs veh, RFX7 / RFU, GTPBP10 / Fold change vs veh, GTPBP10 / RFU, CNEP1R1 / Fold change vs veh, CNEP1R1 / RFU, BIVM-ERCC5 /// ERCC5 / Fold change vs veh, BIVM-ERCC5 /// ERCC5 / RFU, ILF3 / Fold change vs veh, ILF3 / RFU 11762660_at / Fold change /veh 11762660_at / RFU VCAN (11757783_s_at) / Fold change /veh VCAN (11757783_s_at) / RFU DDX43 (11728927_at) / Fold change /veh DDX43 (11728927_at) / RFU KRT8 (11758188_x_at) / Fold change /veh KRT8 (11758188_x_at) / RFU NKD1 (11759106_at) / Fold change /veh NKD1 (11759106_at) / RFU SRD5A1 (11742802_a_at) / Fold change /veh SRD5A1 (11742802_a_at) / RFU TPSAB1 /// TPSB2 (11721975_s_at) / Fold change /veh TPSAB1 /// TPSB2 (11721975_s_at) / RFU GSTM3 (11746129_a_at) / Fold change /veh GSTM3 (11746129_a_at) / RFU IL23R (11737362_x_at) / Fold change /veh IL23R (11737362_x_at) / RFU TMEM51 (11727254_a_at) / Fold change /veh TMEM51 (11727254_a_at) / RFU PIWIL2 (11732686_x_at) / Fold change /veh PIWIL2 (11732686_x_at) / RFU ORM1 (11744905_x_at) / Fold change /veh ORM1 (11744905_x_at) / RFU CCDC152 (11743942_at) / Fold change /veh CCDC152 (11743942_at) / RFU ECM1 (11717891_a_at) / Fold change /veh ECM1 (11717891_a_at) / RFU IL23R (11748794_a_at) / Fold change /veh IL23R (11748794_a_at) / RFU TNFAIP8L3 (11732012_x_at) / Fold change /veh TNFAIP8L3 (11732012_x_at) / RFU MBOAT4 (11741988_at) / Fold change /veh MBOAT4 (11741988_at) / RFU 11764193_at / Fold change /veh 11764193_at / RFU TMEM53 (11763286_at) / Fold change /veh TMEM53 (11763286_at) / RFU MAGEB2 (11727129_at) / Fold change /veh MAGEB2 (11727129_at) / RFU TMEM200A (11744735_a_at) / Fold change /veh TMEM200A (11744735_a_at) / RFU CCDC152 (11751479_a_at) / Fold change /veh CCDC152 (11751479_a_at) / RFU FAM211A (11726209_a_at) / Fold change /veh FAM211A (11726209_a_at) / RFU RGS16 (11746705_a_at) / Fold change /veh RGS16 (11746705_a_at) / RFU VCAN (11755009_s_at) / Fold change /veh VCAN (11755009_s_at) / RFU RHOB (11743442_s_at) / Fold change /veh RHOB (11743442_s_at) / RFU RGS16 (11720943_a_at) / Fold change /veh RGS16 (11720943_a_at) / RFU RGS16 (11720944_at) / Fold change /veh RGS16 (11720944_at) / RFU, VPS4B / Fold change vs veh, VPS4B / RFU, CREB1 / Fold change vs veh, CREB1 / RFU, DNAJC13 / Fold change vs veh, DNAJC13 / RFU, GNAQ / Fold change vs veh, GNAQ / RFU, CDK5R1 / Fold change vs veh, CDK5R1 / RFU, ZRANB3 / Fold change vs veh, ZRANB3 / RFU, CUL4A / Fold change vs veh, CUL4A / RFU, CCNY / Fold change vs veh, CCNY / RFU, UFL1 / Fold change vs veh, UFL1 / RFU, COG3 / Fold change vs veh, COG3 / RFU, DIAPH2 / Fold change vs veh, DIAPH2 / RFU, SKA2 / Fold change vs veh, SKA2 / RFU, AFF3 / Fold change vs veh, AFF3 / RFU, LMF1 / Fold change vs veh, LMF1 / RFU, IPO11 / Fold change vs veh, IPO11 / RFU, DFFB / Fold change vs veh, DFFB / RFU, FOXP1 / Fold change vs veh, FOXP1 / RFU, CARD8 / Fold change vs veh, CARD8 / RFU, STRN3 / Fold change vs veh, STRN3 / RFU, ADK / Fold change vs veh, ADK / RFU, RASSF2 / Fold change vs veh, RASSF2 / RFU, WIPF1 / Fold change vs veh, WIPF1 / RFU, LARP1B / Fold change vs veh, LARP1B / RFU, RASA1 / Fold change vs veh, RASA1 / RFU, RB1 / Fold change vs veh, RB1 / RFU, PPFIA1 / Fold change vs veh, PPFIA1 / RFU, MAT2A / Fold change vs veh, MAT2A / RFU, CCT5 / Fold change vs veh, CCT5 / RFU, WDR92 / Fold change vs veh, WDR92 / RFU, CUX1 / Fold change vs veh, CUX1 / RFU, TTC7A / Fold change vs veh, TTC7A / RFU, TMEM135 / Fold change vs veh, TMEM135 / RFU, DEPTOR / Fold change vs veh, DEPTOR / RFU, CPM / Fold change vs veh, CPM / RFU, DNAJB6 / Fold change vs veh, DNAJB6 / RFU, CACNA2D3 / Fold change vs veh, CACNA2D3 / RFU, DTX4 / Fold change vs veh, DTX4 / RFU, TFCP2 / Fold change vs veh, TFCP2 / RFU, GMCL1 /// GMCL1P1 / Fold change vs veh, GMCL1 /// GMCL1P1 / RFU, AEBP2 / Fold change vs veh, AEBP2 / RFU, SNHG1 /// SNORD22 /// SNORD25 /// SNORD26 /// SNORD27 /// SNORD28 /// SNORD29 /// SNORD31 / Fold change vs veh, SNHG1 /// SNORD22 /// SNORD25 /// SNORD26 /// SNORD27 /// SNORD28 /// SNORD29 /// SNORD31 / Fold change (Aza/veh), C12orf56 (ProbeSet 11735607_a_at) / Fold change (ACY-1035/veh), C12orf56 (ProbeSet 11735607_a_at) / Fold change (Aza/veh), FGFR1OP (ProbeSet 11751329_s_at) / Fold change (ACY-1035/veh), FGFR1OP (ProbeSet 11751329_s_at) / Fold change (Aza/veh), VPS36 (ProbeSet 11739960_a_at) / Fold change (ACY-1035/veh), VPS36 (ProbeSet 11739960_a_at) / RFU SYPL1 (11715823_x_at) / Fold change /veh SYPL1 (11715823_x_at) / RFU IGFBP7 (11715501_s_at) / Fold change /veh IGFBP7 (11715501_s_at) / RFU REEP3 (11722064_at) / Fold change /veh REEP3 (11722064_at) / RFU IGLL1 (11728026_x_at) / Fold change /veh IGLL1 (11728026_x_at): dose or concentration left out as unconfirmed
Conditions: ProbeSet 11732281_s_at; LIST D

Nc1ccc(-c2cccs2)cc1NC(=O)c1ccc2c(c1)cc(C1CC1)n2CCN1CCOCC1 [ACY-1035] was tested, and the “Fold change vs veh, FOXP1” value was 0.88.
